Patent publication US5049372A, “Anticancer activities in a host by increasing blood and plasma adenosine 5'-triphosphate (ATP) levels” (priority 1988, dated 1991)

Key:
RBC ATP pools [1] = assay: Expansion of RBC ATP pools and blood plasma ATP levels after i.p. injection (Table 4); format: in vivo, mouse
Description: (§1) The mice are anesthetized with ether during the procedure. Plasma or Hanks' (Balanced Salt Solution) BSS media from incubated isolated RBCs (Red Blood Cells) are prepared by centrifugation of whole blood or RBCs in a Beckman microfuge (30 seconds at 8000 xg) and samples of 100 μl are added to 1 ml of ice-cold 7% trichloroacetic acid. Red blood cells are prepared by centrifugation of whole blood (1500 xg for 5 minutes at 4° C.) and removal of plasma and the buffy coat is followed by a wash of the pelleted RBCs (from 250 μl of whole blood) in 5 ml of ice-cold Hanks' BSS. After centrifugations, the RBCs pellet is resuspended in Hanks' BSS to yield a total volume with the original hematocrit (percent of RBCs volume in the whole blood). Aliquots of 20 μl of RBCs suspensions or whole blood are added to 1 ml of ice-cold 7% trichloroacetic acid. Extraction of acid-soluble nucleotides and determinations of ATP levels by luminometry followed procedures discussed hereinabove. Levels of [^3 H]ATP in whole blood, RBCs, plasma, or RBCs incubation media (Hanks' BSS) are determined after incorporation of 250 μCi of [^3 H]adenosine of specific radioactivity of 30 Ci/mmol (1 Ci=3.7×10^10 becquerels) into whole blood or RBC suspensions (250 μl total) followed by immediate trichloroacetic acid extractions as described above. Two dimensional thin layer chromatography on poly(ethylene)imine cellulose with an unlabeled ATP carrier is performed according to Bochner and Ames, J. Biol. Chem., 257, pp. 9759-9769, 1982). For the determination of whole blood or isolated RBC [^3 H]ATP pools, 10 μl of a 1 ml initial trichloroacetic acid extract are chromatographed. Determinations of [^3 H]ATP levels in blood plasma or RBCs incubation media are performed on 300 μl of an initial 1 ml trichloroacetic acid extract which are lyophilized and redissolved in 15 μl of water. After chromatography, the spots corresponding to the ATP carrier are cut, eluted with 0.5 ml of 4 N ammonium hydroxide, and radioactivity determined in 10 ml of scintillation fluid.
Single intraperitoneal injections of 2 ml of 35 mM of AMP or ATP in saline at pH 6.2 into CB6F1 mice result in expansions of RBC ATP pools in these mice (see Table 4).
The expansions of RBC ATP pools after i.p. injections of AMP or ATP could be detected 30 minutes after injections and lasted for approximately 6-8 hours after the nucleotides were completely adsorbed across the peritoneal membrane and into the systemic circulation. The rates of adsorption of intraperitoneal AMP or ATP solutions varied in different strains of mice. […] These plasma ATP levels originate in RBCs since they can be metabolically labeled by [^3 H]adenosine. Plasma ATP pools which originate in the dense granules of blood platelets would not be radioactively labeled under the same conditions (e.g., Holmsen, 1985, Seminars in Hematol, 22, 219-240). The experiments described in Tables 4 and 5 include uptake of [^3 H]adenosine by whole blood (Table 4) or isolated washed RBCs (Table 5 below). In both cases, all the extracellular ATP, determined seconds after the uptake of [^3 H]adenosine, is metabolically labeled.

RBC ATP pools [2] = assay: Stability of expanded RBC ATP pools in washed isolated RBCs in vitro after i.p. injection (Table 5); design: species or system mouse; settings: average of two experiments
Description: as §1
Two hour incubations of washed isolated RBCs containing normal or expanded ATP pools in Hanks' BSS result in relatively small decreases in RBC ATP pools with the expanded pools being maintained well above normal levels (Table 5). The expansions of RBC ATP pools after i.p. administration of AMP or ATP in vivo is presumably the result of their dephosphorylation followed by the RBCs uptake of the adenosine which is generated in situ.

[3] = tested on: CT26 colon adenocarcinoma; assay: Growth inhibition of footpad CT26 colon adenocarcinoma in CB6F1 mice, second series (FIGS. 2 and 3); format: in vivo, mouse
Description: (§2) A further series of tests are conducted whereby tumors are inoculated by injections of 2.5×10^5 CT26 cells (over 90% viability) in 50 μl of phosphate-buffered saline into the right hind footpad of CB6F1 mice. The treatments were initiated at a variety of times after inoculation of the tumors. The injection schedules started either 1 or 5 days after tumor inoculation when none of the tumors are palpable or when the tumors are clearly palpable (average calculated weight of 100 mg), which occur in 100% of the inoculated mice after 8-11 days. Mice are randomized, divided into groups, and injected daily with 2.2 ml of saline, adenosine, AMP, or ATP (compounds are in sterile saline solutions at concentrations of 25 mM with AMP and ATP solutions adjusted to pH 6.2). Injections are administered intraperitoneally with 30 gauge needles and the mice are lightly anesthetized with […]. The mice are weighed and tumor sizes measured before the start of the treatment schedule and every three days during and after the treatment schedule. These determinations are performed before injections during the treatment period.
(§3) In particular, see FIG. 2. FIG. 2 illustrates inhibition of tumor growth (---) and host weight loss (-) in tumor-bearing mice by treatment with adenine nucleotides. Mice (CB6F1, 8 week old males) bearing palpable CT26 footpad tumors (on day 9 after tumor inoculation) are treated with saline (.smallcircle.), adenosine (o), AMP (Δ), or ATP (.quadrature.) as described herein. An untreated group is also included (x). Arrows indicate days of injection.
The magnitude of the antitumor activities of AMP and ATP depends to a small extent on the pH of the solution administered intraperitoneally. This property is probably related to the number of negative charges on the phosphate groups (the pKa of the secondary phosphate is around 6.6). AMP and especially ATP have some buffering capacity, and at a pH below 6.6 they carry a smaller net charge than at a physiological pH. The lower charge of these molecules enhances the initial (first hour) transport of AMP and ATP across the peritoneal membrane and into the systemic circulation (see Torres, et al., 1978, Pharmacol., 17, 330-340). […] The treatment schedule of palpable CT26 tumors which is illustrated in FIG. 2 consistently yields 10-20% of "cures". These mice remain tumor-free for at least two months.
FIG. 3 further illustrates inhibition of host weight loss in tumor-bearing animals by treatment with adenine nucleotides. Mice (CB6F1, males, 7 weeks old, in A, 10 weeks old in B, […]) with saline (.smallcircle.), adenosine (o), AMP (Δ), or ATP (.quadrature.) are initiated 1 day (A), 5 days (B), or 9 days after tumor inoculation (when all the tumors were palpable) (C). Arrows indicate days of injection. Experimental procedures were outlined in the text.

[4] = Inhibition of host weight loss (cancer cachexia) in CT26 tumor-bearing mice; format: in vivo, mouse
Description: as §2, §3
FIG. 3 further illustrates inhibition of host weight loss in tumor-bearing animals by treatment with adenine nucleotides. Mice (CB6F1, males, 7 weeks old, in A, 10 weeks old in B, C) are inoculated with CT26 tumors and daily treatments (for 10 consecutive days) with saline (.smallcircle.), adenosine (o), AMP (Δ), or ATP (.quadrature.) are initiated 1 day (A), 5 days (B), or 9 days after tumor inoculation (when all the tumors were palpable) (C). Arrows indicate days of injection. Experimental procedures were outlined in the text.

RBC ATP pools [5] = assay: RBC ATP pools after in vitro incubation of whole mouse blood with 1 mM compound (Table 6); format: cell-based; settings: 1 mM compound, 30 min, bioluminometry
Description: ^+ RBC ATP pools were determined in isolated washed RBCs after
incubations of whole blood with 1 mM of the specified compound by
bioluminometry. Data represent means ± S.D. of three separate

[6] = 5 hours after i.p. injection of 2 ml of 35 mM, CB6F1, bioluminometry, citrate-dextrose

With `Nc1ncnc2c1ncn2[C@@H]1O[C@H](CO)[C@@H](O)[C@H]1O` [Adenosine, adenosine] the “Plasma ATP levels” value (RBC ATP pools [1]; [6]) was 1.12 ± 0.28 µM, the “RBC ATP pools” value (RBC ATP pools [1]; [6]) was 1.10 ± 0.24 mM and the “Plasma [^3 ]ATP levels immediately after [^3 H]adenosine incorporation into whole blood” value (RBC ATP pools [1]; 5 hours after i.p. injection of 2 ml of 35 mM, CB6F1, radioactivity corrected by RBC specific radioactivity) was 0.77 ± 0.30 µM. For the same compound, the “Expansion of RBC ATP pools (in words)” value (RBC ATP pools [1]; i.p. injection, host animals) was “only slightly effective in expanding mouse RBC ATP pools”, the “Medium (Hanks' BSS) [^3 H]ATP levels immediately after [^3 H]adenosine incorporation into isolated, washed RBCs (at time 0)” value (RBC ATP pools [2]; time 0) was 1.20 µM and the “ATP levels in the medium (Hanks' BSS)” value (RBC ATP pools [2]; time 0, bioluminometry) was 1.71 µM. The “RBC ATP pools (37° C.), 0 min” value (RBC ATP pools [2]; washed RBCs in Hanks' BSS, 37° C., 0 min) was 0.69 mM, the “RBC ATP pools (37° C.), 120 min” value (RBC ATP pools [2]; washed RBCs in Hanks' BSS, 37° C., 120 min) was 0.54 mM and the “Anticancer activities against established footpad CT26 colon adenocarcinoma” value ([3]; CB6F1 mice, in words) was “without such effects”. The “Deaths before stated day after tumor inoculation” value ([3]; FIG. 2 experiment, palpable CT26 tumors, 10 animals per group) was “No deaths occurred before day 22”, the “Inhibition of growth of palpable CT26 tumors (in words)” value ([3]; daily i.p. in 2.2 ml saline, pH 6.2, 12 days, starting after tumors palpable, equimolar amounts) was “Much weaker anticancer activities” and the “Deaths before stated day after tumor inoculation” value ([4]; FIG. 3, treatment initiated day 1 (A), day 5 (B) or day 9 (C)) was “No deaths occurred before day 19 (A) or day 25 (B,C)”. The “Effect on tumor growth and rate of weight loss, schedules ending before tumors become large” value ([4]; FIGS. 3A and 3B, treatment from day 1 or day 5) was “having only a small effect on either of the two phenomena”, the “Inhibition of host weight loss (in words)” value ([4]; tumors of similar sizes, FIG. 2 data) was “inhibit weight loss” and the “RBC ATP pools (after 30 min incubations in heparinized mouse blood)” value (RBC ATP pools [5]) was 0.55 ± 0.17 µM.
